Reference: patent publication US20030186410A1, “Novel (r)-2-hydroxy-3-phenylpropionate (d-phenyllactate) dehydrogenase and gene encoding the same” (priority 2000, published 2003)

Test system: D-PLDH
Assay: Relative enzyme activity of partially purified enzyme solution with different reaction substrates
Format: biochemical, Mycelia sterilia
Details: partially purified enzyme solution (Mono Q10/10) from pDPLDH-1-carrying E. coli, compound used as reaction substrate
Procedure: A 150 μl portion of buffer solution A containing 250 μM NADPH and 250 μM phenylpyruvic acid was dispensed into wells of a 96-well microtiter plate, 50 μl each of the crude enzyme solution was added and mixed immediately using a pipette, and a change in absorption at 340 nm at 26° C. was measured. The measurement was carried out using an Absorption Microassay Reader BioLumin 960 (Molecular Dynamics) to trace a decrease in absorption with time after the start of the reaction. The amount of the enzyme which oxidized 1 μmol of NADPH per minute was set to be one unit. Results are shown in Table 1 as the enzyme activity of the crude enzyme solution.
Further, the obtained crude enzyme solution was processed using Mono Q10/10 under the conditions described in Example 1-2 to prepare a partially purified enzyme solution. This partially purified enzyme solution was applied onto a 96-well microtiter with different concentrations of the substrate, phenylpyruvic acid, to measure enzyme activity. Further, enzyme activity was also measured with an alternative substrate, pyruvic acid, in place of phenylpyruvic acid. […]

## O=C(O)C(=O)Cc1ccccc1 [Phenylpyruvic acid, 2-oxo-3-phenylpropionic acid]
  Relative reaction rate (rate with phenylypyruvic acid = 100): 100

## CC(=O)C(=O)O [Pyruvic acid]
  Relative reaction rate (rate with phenylypyruvic acid = 100): 10
